Reference: patent US20020150990A1, “Hepatitis C virus peptides” (priority 1992, published 2002)
Ends that are not written are not given here.

Tests used:
antibodies against HCV [1] = experiment: PEPSCAN analysis of overlapping octameric peptides of the HCV core protein N-terminal region with HCV-seropositive sera; type: binding, human; conditions: 16 sera assayed by PEPSCAN
Source text: The N-terminal 97 amino acid residues of HCV Core protein SEQ ID NO: 8 was mapped with PEPSCAN analysis. This process involved the serological analysis of sequentially overlapping peptides which spanned the region of interest, to identify epitopic domains. Ninety overlapping octameric peptides were synthesized on polypropylene pin supports according to the manufacturer's instructions (Cambridge Research Biochemicals), such that each peptide overlapped with the preceding sequence by the seven N-terminal residues, and with the subsequent peptide by the seven C-terminal residues. Serum or IgG purified from the serum of individuals confirmed to be seropositive for HCV were used to screen the peptides.
The assay procedure followed was performed basically as described in the manufacturers instruction manual. The time and temperature of the test antibody incubation differed from that prescribed, thereby decreasing the time taken for each assay.
Sera: A total of 16 sera were assayed by PEPSCAN. These consisted of 12 sera from paid U.S. Donors which were identified as being positive for antibodies against HCV in routine screening at the site of donation. The remaining four sera were from patients diagnosed as having non-A non-B hepatitis, and which were subsequently shown to contain antibodies to HCV. Sera were screened either as the crude serum fraction, or as a caprylic acid preparation. Caprylic acid purification of IgG from the sera was performed as described by Stienbuch and Audran (1969) Arch. Biochem. Biophys. 134, 279-284.
Assay: The assay format involves sequentially incubating the various pins in microwell plates containing blocking, test antibody, conjugate, and substrate solutions. The immune complex builds up on the pin with the enzyme labelled conjugate being immobilized on the bound anti-peptide antibody from the test serum. When the pin is then immersed in substrate, the enzyme brings about the colour change which is used to quantify the amount of anti-peptide antibody bound.
Blocking: Pins are immersed in 200 μl of Supercocktail (1% Ovalbumin, 1% bovine serum albumin in 0.15M phosphate buffered saline pH 7.2—0.1% Tween 20) and left to stand at room temperature for 1 hour.
Test antibody: The test antibody is diluted between 1/200 (IgG) and 1/1000 (serum) in supercocktail. The pins are then stood in this solution (175 μl/well) at 37° C. for 1 hour. After this incubation the pins are washed four times in 0.15M phosphate buffered saline pH 7.2—0.05% Tween 20, each at room temperature for 10 minutes.
Conjugate: Rabbit anti-human IgG coupled to horseradish peroxidase is diluted 1/1000 in supercocktail. The peptide bearing pins are then stood in this solution at room temperature for 1 hour. Once again the pins are then washed four times as above.
Substrate: The substrate solution is made up fresh for each assay. To 100 ml of 0.1M phosphate, 0.08M citrate buffer pH 4.0 is dissolved 50 mg of 2,2′-AZINO-bis (3-ethylbenzthiazo-linsulphonic acid (ABTS) and 0.3 μl/ml 30% hydrogen peroxide is added. The pins are immersed in the wells containing substrate solution (150 μl/well) and incubated at room temperature in the dark. Once sufficient colour has developed the reaction is stopped by removing the pins. The plates are then read immediately in a spectrophotometric plate reader at a wavelength of 405 nm. The absorbance values are then plotted against pin number. The epitopic domains are then defined as the continuous sequence of amino acids common to all positive pins in the domain i.e.

antibodies against HCV [2] = experiment: Replacement Net analysis of the core immunodominant epitope YLLPRR with 12 paid donor human sera; type: binding; conditions: n = 12 sera; for Frequency of relative signal strength: All: acceptable when signal 80% of the parent sequence or greater; for Frequency of relative signal strength: 2nd-5th / Frequency of relative signal strength: 6th-10th / Frequency of relative signal strength: Below 10th / Frequency of relative signal strength: Highest: rank of replacement residue at that position
Experimental: The Replacement Net Method was used to sequentially replace each of the constituent amino acid residues in the epitope with each of the other genetically encoded amino acids.
For Replacement Net analysis, a parent sequence is entered into the Epitope Mapping Software provided by Cambridge Research Biochemicals, and a set of replacement peptides is generated. This process was performed for the six amino acid residue immunodominant core epitope of HCV. The peptides were synthesized on polypropylene pins as directed by the manufacturer (CRB). The Assay format was identical to that followed for PEPSCAN above.
The Replacement Net of the core immunodominant epitope sequence Tyr-Leu-Leu-Pro-Arg-Arg (YLLPRR) (SEQ ID NO: 1 and 2) with the 12 paid donor human sera as described above was considered.
For each position within the epitope, the frequency of each replacement residue as an acceptable replacement for the parent sequence is given. Replacement residues were deemed acceptable when the signal of the new peptide was 80% of the parent sequence or greater.
The residue in italics is the parent sequence.

[3] = listed as 2-Leucine L, epitope position 2-Leucine, residue L
[4] = listed as 3-Leucine L, epitope position 3-Leucine, residue L
[5] = listed as 5-Arginine R, epitope position 5-Arginine, residue R
[6] = listed as 6-Arginine R, epitope position 6-Arginine, residue R

For YLLPRR [YLLPRR], the “Detection of the epitope by sera” value (antibodies against HCV [1]) was “detected to a greater or lesser extent by all of the sera tested”, the “Frequency of relative signal strength: All” value (antibodies against HCV [2]; listed as 1-Tyrosine Y) was 11 and the “Frequency of relative signal strength: All” value (antibodies against HCV [2]; [3]) was 8. For the same substance, the “Frequency of relative signal strength: All” value (antibodies against HCV [2]; [4]) was 3, the “Frequency of relative signal strength: All” value (antibodies against HCV [2]; listed as 4-Proline P) was 5 and the “Frequency of relative signal strength: All” value (antibodies against HCV [2]; [5]) was 10. The “Frequency of relative signal strength: All” value (antibodies against HCV [2]; [6]) was 11, the “Frequency of relative signal strength: 2nd-5th” value (antibodies against HCV [2]; listed as 1-Tyrosine Y) was 3 and the “Frequency of relative signal strength: 6th-10th” value (antibodies against HCV [2]; listed as 1-Tyrosine Y) was 5. The “Frequency of relative signal strength: Below 10th” value (antibodies against HCV [2]; listed as 1-Tyrosine Y) was 1, the “Frequency of relative signal strength: Highest” value (antibodies against HCV [2]; listed as 1-Tyrosine Y) was 2 and the “Frequency of relative signal strength: 2nd-5th” value (antibodies against HCV [2]; [3]) was 2. For the same substance, the “Frequency of relative signal strength: 6th-10th” value (antibodies against HCV [2]; [3]) was 3, the “Frequency of relative signal strength: Below 10th” value (antibodies against HCV [2]; [3]) was 2 and the “Frequency of relative signal strength: Highest” value (antibodies against HCV [2]; [3]) was 1. For the same substance, the “Frequency of relative signal strength: 2nd-5th” value (antibodies against HCV [2]; [4]) was 0, the “Frequency of relative signal strength: 6th-10th” value (antibodies against HCV [2]; [4]) was 1 and the “Frequency of relative signal strength: Below 10th” value (antibodies against HCV [2]; [4]) was 0. The “Frequency of relative signal strength: Highest” value (antibodies against HCV [2]; [4]) was 2, the “Frequency of relative signal strength: 2nd-5th” value (antibodies against HCV [2]; listed as 4-Proline P) was 1 and the “Frequency of relative signal strength: 6th-10th” value (antibodies against HCV [2]; listed as 4-Proline P) was 1. The “Frequency of relative signal strength: Below 10th” value (antibodies against HCV [2]; listed as 4-Proline P) was 0, the “Frequency of relative signal strength: Highest” value (antibodies against HCV [2]; listed as 4-Proline P) was 3 and the “Frequency of relative signal strength: 2nd-5th” value (antibodies against HCV [2]; [5]) was 2. The “Frequency of relative signal strength: 6th-10th” value (antibodies against HCV [2]; [5]) was 1, the “Frequency of relative signal strength: Below 10th” value (antibodies against HCV [2]; [5]) was 7 and the “Frequency of relative signal strength: Highest” value (antibodies against HCV [2]; [5]) was 0. For the same substance, the “Frequency of relative signal strength: 2nd-5th” value (antibodies against HCV [2]; [6]) was 1, the “Frequency of relative signal strength: 6th-10th” value (antibodies against HCV [2]; [6]) was 5 and the “Frequency of relative signal strength: Below 10th” value (antibodies against HCV [2]; [6]) was 3. The “Frequency of relative signal strength: Highest” value (antibodies against HCV [2]; [6]) was 2.
